Data on six compounds can be found in US9796733B2, “Imidazo-pyrazine derivatives useful as soluble guanylate cyclase activators” (Merck Sharp & Dohme Corp., priority 2014, dated 2017).

One assay has as its target T1, sGC α1/β1 heterodimer (Homo sapiens, UniProt Q02108+Q02153).
T1 construct: expressed in transfected cells; host or cells: CHO-K1 (clone #7, CHO-K1/sGC)
T1 sequence (Q02108 1-690): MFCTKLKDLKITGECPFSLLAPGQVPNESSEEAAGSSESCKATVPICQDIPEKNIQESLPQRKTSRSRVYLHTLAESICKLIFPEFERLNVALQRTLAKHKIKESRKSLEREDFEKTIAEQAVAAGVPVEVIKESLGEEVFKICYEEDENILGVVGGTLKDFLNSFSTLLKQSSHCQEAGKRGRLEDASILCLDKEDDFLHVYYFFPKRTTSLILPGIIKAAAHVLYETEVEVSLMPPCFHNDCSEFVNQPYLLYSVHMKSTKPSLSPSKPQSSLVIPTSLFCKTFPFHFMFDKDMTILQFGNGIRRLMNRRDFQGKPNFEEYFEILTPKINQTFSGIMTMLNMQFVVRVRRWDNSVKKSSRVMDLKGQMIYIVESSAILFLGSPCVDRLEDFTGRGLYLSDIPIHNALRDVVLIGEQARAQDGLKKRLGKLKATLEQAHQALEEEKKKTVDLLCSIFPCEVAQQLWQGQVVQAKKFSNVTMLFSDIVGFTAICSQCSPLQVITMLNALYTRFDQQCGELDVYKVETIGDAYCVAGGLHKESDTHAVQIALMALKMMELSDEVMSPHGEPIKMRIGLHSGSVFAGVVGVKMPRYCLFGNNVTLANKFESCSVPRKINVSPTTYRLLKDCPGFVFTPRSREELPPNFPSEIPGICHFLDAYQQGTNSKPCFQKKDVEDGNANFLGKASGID
T1 sequence (Q02153 1-619): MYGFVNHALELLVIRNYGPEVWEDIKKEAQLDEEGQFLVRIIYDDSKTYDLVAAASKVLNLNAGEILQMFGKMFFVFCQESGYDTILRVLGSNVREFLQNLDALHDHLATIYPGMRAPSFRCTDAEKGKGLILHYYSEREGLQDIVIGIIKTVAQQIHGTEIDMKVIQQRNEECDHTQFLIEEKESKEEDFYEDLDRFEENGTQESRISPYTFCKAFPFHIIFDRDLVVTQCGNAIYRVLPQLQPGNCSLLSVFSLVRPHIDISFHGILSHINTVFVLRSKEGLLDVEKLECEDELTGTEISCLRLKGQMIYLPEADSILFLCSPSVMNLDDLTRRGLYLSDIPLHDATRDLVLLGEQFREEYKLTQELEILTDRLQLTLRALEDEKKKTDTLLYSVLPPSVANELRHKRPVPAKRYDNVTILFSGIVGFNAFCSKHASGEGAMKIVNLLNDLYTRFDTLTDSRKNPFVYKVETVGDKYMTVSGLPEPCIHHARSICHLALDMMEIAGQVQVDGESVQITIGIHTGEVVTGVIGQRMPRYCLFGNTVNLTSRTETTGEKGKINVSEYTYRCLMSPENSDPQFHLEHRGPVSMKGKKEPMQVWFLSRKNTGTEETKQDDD
Description: Cell-based sGC functional assay (CASA assay): cGMP generation in CHO-K1/sGC cells, HTRF detection. The settings on record: for Emax: CHO-K1, percent activation relative to standard Compound A in CHO-K1/sGC cells, read-out: % Act.; for EC50: inflection point (IP) of cGMP generation in CHO-K1/sGC cells, 4P fit, activity expressed as percentage of Compound A. The gist of the method:
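cGMP was quantified by HTRF after 1 hr, 37° C exposure of thawed CHO-K1 cells expressing sGC α1/β1 to compound, with or without 1 μM DETA-NO. IBMX (0.5 mM) blocked cGMP breakdown, and DMSO was 2.5% final. Percent of standard Compound A's maximal cGMP was fitted (4P) for inflection point.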
For orientation: TR-FRET usually uses a lanthanide donor and a delayed reading to cut background.

Assay [1] concerns Spontaneously hypertensive rats (SHR). Description: Acute efficacy in spontaneously hypertensive rats (SHR): telemetry blood pressure lowering after a single oral dose. The format is in vivo, rat. In a few lines: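 Values are the maximum peak fall in systolic pressure after one oral dose (mpk), computed hourly against baseline from a vehicle dose given the day before. Rats were conscious, male, spontaneously hypertensive, with femoral-aortic telemetry recording 30 s every 10 min, 14 days post-surgery.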

One may read the EC50 as the concentration at which the effect is half-maximal. As for `Nc1nc(-c2cn3ccnc3c(CCCC(F)(F)F)n2)nc2c1C(c1cncc(F)c1)(C1CC1)C(=O)N2` (stereo not drawn) [Example 356B, 4-amino-5-cyclopropyl-5-(5-fluoropyridin-3-yl)-2-(8-(4,4,4-trifluorobutyl)imidazo[1,2-a]pyrazin-6-yl)-5H-pyrrolo[2,3-d]pyrimidin-6(7H)-one], at sGC α1/β1 heterodimer, the Emax turned out to be 108% and a half-maximal effect (EC50) was put at 0.487 µM. In assay [1] (P.O. 3.0 mpk), the “Maximum peak decrease of systolic blood pressure (SBP) in SHR, Cat.” value (“Maximum peak decrease” below) was “A (Category A=SBP in SHRs<20 mmHg)”.

Consider `CCCc1nc(-c2nc(N)c3c(n2)NC(=O)C3(c2ccc(Cl)cc2F)C2CC2)cn2ccnc12` (stereo not drawn) [Example 360A, 4-amino-5-(4-chloro-2-fluorophenyl)-5-cyclopropyl-2-(8-propylimidazo[1,2-a]pyrazin-6-yl)-5H-pyrrolo[2,3-d]pyrimidin-6(7H)-one], for which, on sGC α1/β1 heterodimer, the Emax was 129% and the concentration for a half-maximal effect (EC50) amounted to 0.043 µM. Besides, the “Maximum peak decrease” value in assay [1] (P.O. 3.0 mpk) is “B (Category B=SBP in SHRs 20-40 mmHg)”.

Consider `CCCCc1nc(-c2nc(N)c3c(n2)NC(=O)C3(c2ccc(Cl)cc2F)C2CC2)cn2ccnc12` (stereo not drawn) [Example 369A, 4-amino-2-(8-butylimidazo[1,2-a]pyrazin-6-yl)-5-(4-chloro-2-fluorophenyl)-5-cyclopropyl-5H-pyrrolo[2,3-d]pyrimidin-6(7H)-one], for which, at sGC α1/β1 heterodimer, the Emax came out at 109% and a half-maximal response (EC50) required 0.013 µM. For the same compound, in assay [1] (P.O. 0.3 mpk), the “Maximum peak decrease” value is given as “B (Category B=SBP in SHRs 20-40 mmHg)”.

As to `CCCCc1nc(-c2nc(N)c3c(n2)NC(=O)C3(c2ncc(Cl)cn2)C2CC2)cn2ccnc12` (stereo not drawn) [Example 372A, 4-amino-2-(8-butylimidazo[1,2-a]pyrazin-6-yl)-5-(5-chloropyrimidin-2-yl)-5-cyclopropyl-5H-pyrrolo[2,3-d]pyrimidin-6(7H)-one], at sGC α1/β1 heterodimer, the Emax was 187% and the EC50 worked out at 0.239 µM. In assay [1] (P.O. 1.0 mpk), the “Maximum peak decrease” value is reported as “C (Category C=SBP in SHRs>40 mmHg)”.

Regarding `Nc1nc(-c2cn3ccnc3c(CCCC(F)(F)F)n2)nc2c1C(c1ncc(Cl)cn1)(C1CC1)C(=O)N2` (stereo not drawn) [Example 373A, 4-amino-5-(5-chloropyrimidin-2-yl)-5-cyclopropyl-2-(8-(4,4,4-trifluorobutyl)imidazo[1,2-a]pyrazin-6-yl)-5H-pyrrolo[2,3-d]pyrimidin-6(7H)-one], on sGC α1/β1 heterodimer, the Emax came to 114% and the concentration giving a half-maximal response (EC50) amounted to 0.026 µM. Besides, in assay [1] (P.O. 0.3 mpk), the “Maximum peak decrease” value is on record as “A (Category A=SBP in SHRs<20 mmHg)”.

With `Nc1nc(-c2cn3ccnc3c(CCCC(F)(F)F)n2)nc2c1C(c1ccccn1)(C1CC1)C(=O)N2` (stereo not drawn) [Example 383B, 4-Amino-5-cyclopropyl-5-(pyridin-2-yl)-2-(8-(4,4,4-trifluorobutyl)imidazo[1,2-a]pyrazin-6-yl)-5H-pyrrolo[2,3-d]pyrimidin-6(7H)-one], on sGC α1/β1 heterodimer, the Emax amounted to 137% and the EC50 worked out at 0.098 µM. The “Maximum peak decrease” value in assay [1] (P.O. 1.0 mpk) was “B (Category B=SBP in SHRs 20-40 mmHg)”.
